Measurements reported in ChEMBL document CHEMBL4765415 (Eur J Med Chem, 2020).
Values belong to the molecule of their own block, whether it stands above or below them. Calls of active or inactive are those of the source. The rule behind the calls is not given here.

Assays:
[1] = target: T1, Bifunctional epoxide hydrolase 2 (Homo sapiens, UniProt P34913); assay: Inhibition of human sEH using epoxy flour 7 as substrate measured after 30 mins by cell-based fluorescence assay
T1 sequence (P34913 whole entry): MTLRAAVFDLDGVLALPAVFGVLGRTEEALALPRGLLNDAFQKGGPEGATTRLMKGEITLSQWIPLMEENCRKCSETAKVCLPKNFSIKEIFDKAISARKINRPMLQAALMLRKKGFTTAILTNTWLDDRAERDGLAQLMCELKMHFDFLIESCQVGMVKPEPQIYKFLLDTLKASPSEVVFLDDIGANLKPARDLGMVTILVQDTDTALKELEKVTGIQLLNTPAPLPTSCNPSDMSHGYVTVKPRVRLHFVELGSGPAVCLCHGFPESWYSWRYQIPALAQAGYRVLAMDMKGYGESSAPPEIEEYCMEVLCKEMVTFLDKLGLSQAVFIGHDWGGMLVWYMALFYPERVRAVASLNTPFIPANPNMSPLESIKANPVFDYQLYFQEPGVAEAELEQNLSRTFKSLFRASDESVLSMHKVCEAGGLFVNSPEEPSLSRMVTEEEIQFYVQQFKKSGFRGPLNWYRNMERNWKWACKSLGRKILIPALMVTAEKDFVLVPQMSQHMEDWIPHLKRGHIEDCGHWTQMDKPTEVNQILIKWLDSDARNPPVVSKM

[2] = Cardiotoxicity in albino Wistar rat assessed as change in serum PGI2 level at 100 mg/kg, po administered for 2 weeks and measured on day 15 by ELISA; format: toxicity, organism-based; details: in vivo, 360 h, time 15 day
Rattus norvegicus [3] = assay: Cardioprotective activity in celecoxib-induced cardiotoxicity in albino Wistar rat assessed as reduction in congestion in coronary artery at 100 mg/kg, po administered for 2 weeks and measured on day 15 by H and E staining based histopathological analysis; format: functional, organism-based; details: time 15.0 day
Rattus norvegicus [4] = assay: Antiinflammatory activity in albino rat model of carrageenan-induced paw edema assessed as inhibition of paw edema at 50 mg/kg, po administered 1 hr prior to carrageenan challenge and measured after 3 hrs by Vernier caliper method relative to control; format: functional; details: time 4 hrs
[5] = target: T2, Prostaglandin G/H synthase 2 (Homo sapiens, UniProt P35354); assay: Inhibition of recombinant human COX2 using arachidonic acid as substrate preincubated for 5 mins followed by substrate addition and measured after 2 mins by Ellman's reagent based enzyme immunoassay; format: ADME
T2 sequence (P35354 whole entry): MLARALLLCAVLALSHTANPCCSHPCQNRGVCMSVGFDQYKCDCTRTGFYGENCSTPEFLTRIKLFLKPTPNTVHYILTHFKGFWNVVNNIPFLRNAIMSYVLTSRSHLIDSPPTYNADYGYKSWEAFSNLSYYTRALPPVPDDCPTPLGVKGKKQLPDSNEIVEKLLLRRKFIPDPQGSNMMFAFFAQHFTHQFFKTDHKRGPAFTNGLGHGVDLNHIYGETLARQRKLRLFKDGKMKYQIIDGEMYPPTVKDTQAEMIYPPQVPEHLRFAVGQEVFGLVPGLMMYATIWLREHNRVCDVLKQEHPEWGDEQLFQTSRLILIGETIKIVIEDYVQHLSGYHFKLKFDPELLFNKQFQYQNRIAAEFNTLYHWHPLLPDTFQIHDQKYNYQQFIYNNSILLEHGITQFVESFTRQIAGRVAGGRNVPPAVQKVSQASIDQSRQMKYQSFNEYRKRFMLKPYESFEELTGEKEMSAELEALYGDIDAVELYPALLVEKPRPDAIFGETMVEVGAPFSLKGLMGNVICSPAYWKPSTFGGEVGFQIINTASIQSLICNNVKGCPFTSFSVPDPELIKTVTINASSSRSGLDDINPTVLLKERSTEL

Mus musculus [6] = assay: Analgesic activity in albino mouse assessed as inhibition of acetic acid-induced writhing at 10 mg/kg, po administered 1 hr prior to acetic acid challenge and measured after 5 to 15 mins relative to control; format: functional; details: time 60-75 min
[7] = Selectivity index, ratio of IC50 for recombinant human COX1 to recombinant human COX2
Rattus norvegicus [8] = assay: Cardioprotective activity in celecoxib-induced cardiotoxicity in albino Wistar rat assessed as reduction in edema in coronary artery at 100 mg/kg, po administered for 2 weeks and measured on day 15 by H and E staining based histopathological analysis; format: functional, organism-based; details: time 15.0 day
Rattus norvegicus [9] = assay: Cardioprotective activity in celecoxib-induced cardiotoxicity in albino Wistar rat assessed as change in serum creatine kinase-MB level at 100 mg/kg, po administered for 2 weeks and measured on day 15 by spectrophotometry (reference value: 95.33 +/- 4 IU/L); format: functional; details: time 15 day
Rattus norvegicus [10] = assay: Antiinflammatory activity in albino rat model of carrageenan-induced paw edema assessed as inhibition of paw edema at 50 mg/kg, po administered 1 hr prior to carrageenan challenge and measured after 5 hrs by Vernier caliper method relative to control; format: functional; details: time 6 hrs
Rattus norvegicus [11] = assay: Cardioprotective activity in celecoxib-induced cardiotoxicity in albino Wistar rat assessed as restoration of serum PGI2 level at 100 mg/kg, po administered for 2 weeks and measured on day 15 by ELISA; format: functional, organism-based; details: time 15.0 day
Rattus norvegicus [12] = assay: Cardioprotective activity in celecoxib-induced cardiotoxicity in albino Wistar rat assessed as reduction in edema in myocardium blood vessel at 100 mg/kg, po administered for 2 weeks and measured on day 15 by H and E staining based histopathological analysis; format: functional, organism-based; details: time 15.0 day
Rattus norvegicus [13] = assay: Cardioprotective activity in celecoxib-induced cardiotoxicity in albino Wistar rat assessed as change in serum troponin-I level at 100 mg/kg, po administered for 2 weeks and measured on day 15 by ELISA (reference value: 340 +/- 11.56 pg/ml); format: functional; details: time 15 day
Rattus norvegicus [14] = assay: Cardioprotective activity in celecoxib-induced cardiotoxicity in albino Wistar rat assessed as change in serum TNFalpha level at 100 mg/kg, po administered for 2 weeks and measured on day 15 by ELISA (reference value: 748.67 +/- 43.15 pg/ml); format: functional; details: time 15 day
Rattus norvegicus [15] = assay: Antiinflammatory activity in albino rat model of carrageenan-induced paw edema assessed as inhibition of paw edema at 50 mg/kg, po administered 1 hr prior to carrageenan challenge and measured after 1 hr by Vernier caliper method relative to control; format: functional; details: time 2 hrs
Mus musculus [16] = assay: Analgesic activity in albino mouse assessed as inhibition of acetic acid-induced writhing at 10 mg/kg, po administered 1 hr prior to acetic acid challenge and measured after 5 to 15 mins relative to celecoxib; format: functional; details: time 60-75 min
Rattus norvegicus [17] = assay: Cardioprotective activity in celecoxib-induced cardiotoxicity in albino Wistar rat assessed as reduction in congestion in myocardium blood vessel at 100 mg/kg, po administered for 2 weeks and measured on day 15 by H and E staining based histopathological analysis; format: functional, organism-based; details: time 15.0 day
[18] = target: Prostaglandin G/H synthase 1 (Homo sapiens, UniProt P23219); assay: Inhibition of recombinant human COX1 using arachidonic acid as substrate preincubated for 5 mins followed by substrate addition and measured after 2 mins by Ellman's reagent based enzyme immunoassay; format: ADME
Rattus norvegicus [19] = assay: Cardioprotective activity in celecoxib-induced cardiotoxicity in albino Wistar rat assessed as change in serum LDH level at 100 mg/kg, po administered for 2 weeks and measured on day 15 by spectrophotometry (reference value: 2091.3 +/- 99.9 IU/L); format: functional; details: time 15 day
Rattus norvegicus [20] = assay: Cardioprotective activity in celecoxib-induced cardiotoxicity in albino Wistar rat assessed as restoration of GSH level in cardiac tissue at 100 mg/kg, po administered for 2 weeks and measured on day 15; format: functional, organism-based; details: time 15.0 day

Prostaglandin G/H synthase 1, sequence (P23219 whole entry): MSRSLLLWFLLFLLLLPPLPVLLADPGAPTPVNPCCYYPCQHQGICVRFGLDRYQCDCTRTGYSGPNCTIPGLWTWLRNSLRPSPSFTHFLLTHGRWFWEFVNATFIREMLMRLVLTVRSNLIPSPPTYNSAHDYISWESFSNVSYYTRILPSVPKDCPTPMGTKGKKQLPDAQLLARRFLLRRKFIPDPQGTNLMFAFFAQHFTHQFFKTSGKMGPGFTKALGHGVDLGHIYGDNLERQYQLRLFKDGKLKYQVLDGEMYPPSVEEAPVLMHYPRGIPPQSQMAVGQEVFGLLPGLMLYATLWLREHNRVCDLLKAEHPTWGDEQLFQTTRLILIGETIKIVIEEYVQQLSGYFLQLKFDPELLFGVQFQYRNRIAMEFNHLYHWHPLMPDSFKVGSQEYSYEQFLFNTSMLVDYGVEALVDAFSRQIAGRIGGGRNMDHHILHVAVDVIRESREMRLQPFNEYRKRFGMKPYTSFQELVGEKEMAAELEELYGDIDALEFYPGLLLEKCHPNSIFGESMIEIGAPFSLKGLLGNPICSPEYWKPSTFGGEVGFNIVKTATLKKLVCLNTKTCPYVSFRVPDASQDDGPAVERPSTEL

- IC50 [1]: 1.74 nM
Structure (SMILES): CCOC(=O)C1CCN(C(=O)Nc2cc(-c3ccccc3)n(-c3ccc(S(N)(=O)=O)cc3)n2)CC1

- IC50 [1]: 1.84 nM
Structure (SMILES): NS(=O)(=O)c1ccc(-n2nc(C(=O)NCCCC(=O)O)cc2-c2ccccc2)cc1

Structure (SMILES): NS(=O)(=O)c1ccc(-n2nc(NC(=O)NC34CC5CC(CC(C5)C3)C4)cc2-c2ccccc2)cc1
- Activity [2]: Toxic
- Activity (Rattus norvegicus [3]): Active
- inhibition in vivo at 50 mg/kg (Rattus norvegicus [4]): 92%
- IC50 [5]: 1850 nM
- inhibition in vivo at 10 mg/kg (Mus musculus [6]): 24.6%
- Ratio IC50 [7]: 6.41
- Activity (Rattus norvegicus [8]): Active
- IC50 [1]: 0.55 nM
- Activity (Rattus norvegicus [9]): 22 IU/L
- inhibition in vivo at 50 mg/kg (Rattus norvegicus [10]): 93.8%
- Activity (Rattus norvegicus [11]): Active
- Activity (Rattus norvegicus [12]): Active
- Activity (Rattus norvegicus [13]): 150 pg/mL
- Activity (Rattus norvegicus [14]): 322 pg/mL
- inhibition in vivo at 50 mg/kg (Rattus norvegicus [15]): 62.2%
- fold change (FC) (Mus musculus [16]): 1.83
- Activity (Rattus norvegicus [17]): Active
- IC50 [18]: 11800 nM
- Activity (Rattus norvegicus [19]): 1585 IU/L
- Activity (Rattus norvegicus [20]): Active

- IC50 [1]: 1.21 nM
Structure (SMILES): NS(=O)(=O)c1ccc(-n2nc(C(=O)Nc3ccc(C(F)(F)F)cc3)cc2-c2ccccc2)cc1

- IC50 [1]: 1.61 nM
Structure (SMILES): CCOC(=O)C1CCN(C(=O)c2cc(-c3ccccc3)n(-c3ccc(S(N)(=O)=O)cc3)n2)CC1

- IC50 [1]: 0.4 nM
Structure (SMILES): NS(=O)(=O)c1ccc(-n2nc(NC(=O)Nc3ccc(C(F)(F)F)cc3)cc2-c2ccccc2)cc1

- IC50 [1]: 3.31 nM
Structure (SMILES): NS(=O)(=O)c1ccc(-n2nc(C(=O)NCCCCCCCCCCC(=O)O)cc2-c2ccccc2)cc1

- IC50 [1]: 1.57 nM
Structure (SMILES): NS(=O)(=O)c1ccc(-n2nc(NC(=O)NCCCCCCCCCCC(=O)O)cc2-c2ccccc2)cc1

Structure (SMILES): Cc1ccc(-c2cc(C(F)(F)F)nn2-c2ccc(S(N)(=O)=O)cc2)cc1 [CELECOXIB]
- Activity [2]: Toxic
- inhibition in vivo at 50 mg/kg (Rattus norvegicus [4]): 82.7%
- inhibition in vivo at 10 mg/kg (Mus musculus [6]): 13.4%
- inhibition in vivo at 50 mg/kg (Rattus norvegicus [10]): 88.3%
- inhibition in vivo at 50 mg/kg (Rattus norvegicus [15]): 81.2%

- IC50 [1]: 0.98 nM
Structure (SMILES): NS(=O)(=O)c1ccc(-n2nc(NC(=O)NC3CCCCC3)cc2-c2ccccc2)cc1

- IC50 [1]: 4.01 nM
Structure (SMILES): NS(=O)(=O)c1ccc(-n2nc(NC(=O)NCCCC(=O)O)cc2-c2ccccc2)cc1

- IC50 [1]: 2.38 nM
Structure (SMILES): NS(=O)(=O)c1ccc(-n2nc(C(=O)NC3CCCCC3)cc2-c2ccccc2)cc1

Structure (SMILES): NS(=O)(=O)c1ccc(-n2nc(C(=O)NC34CC5CC(CC(C5)C3)C4)cc2-c2ccccc2)cc1
- inhibition in vivo at 50 mg/kg (Rattus norvegicus [4]): 76.5%
- IC50 [5]: 2150 nM
- inhibition in vivo at 10 mg/kg (Mus musculus [6]): 62.7%
- Ratio IC50 [7]: 4.18
- IC50 [1]: 1.15 nM
- inhibition in vivo at 50 mg/kg (Rattus norvegicus [10]): 84.2%
- inhibition in vivo at 50 mg/kg (Rattus norvegicus [15]): 42%
- fold change (FC) (Mus musculus [16]): 4.66
- IC50 [18]: 8990 nM
